We go through twelve molecules from ChEMBL document CHEMBL2074499, “Cloning and functional expression of a human liver organic cation transporter” (Mol Pharmacol, 1997).

Series [1] deals with T1, Solute carrier family 22 member 1 (Homo sapiens, UniProt O15245).
T1 sequence (O15245 whole entry): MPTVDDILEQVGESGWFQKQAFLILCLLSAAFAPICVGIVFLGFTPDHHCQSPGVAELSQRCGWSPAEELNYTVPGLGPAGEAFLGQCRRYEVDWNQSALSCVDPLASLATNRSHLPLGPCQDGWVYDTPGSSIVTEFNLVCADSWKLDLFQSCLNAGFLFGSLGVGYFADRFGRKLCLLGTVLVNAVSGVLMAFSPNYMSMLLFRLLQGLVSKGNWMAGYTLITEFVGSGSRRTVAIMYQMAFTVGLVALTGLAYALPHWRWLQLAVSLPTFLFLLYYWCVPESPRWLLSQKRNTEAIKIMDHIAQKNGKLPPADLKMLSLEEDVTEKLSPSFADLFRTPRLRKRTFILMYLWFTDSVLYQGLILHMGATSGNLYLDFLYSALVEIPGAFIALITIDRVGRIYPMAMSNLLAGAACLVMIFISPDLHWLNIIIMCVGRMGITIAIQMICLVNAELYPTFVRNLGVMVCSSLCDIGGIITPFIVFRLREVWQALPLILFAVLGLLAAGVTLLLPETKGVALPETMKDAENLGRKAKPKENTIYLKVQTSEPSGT
Nature of the series: TP_TRANSPORTER: inhibition of MPP+ uptake in Xenopus laevis oocytes. In kind it is functional, cell-based, Oocyte.

In series [2] the target is T1, Solute carrier family 22 member 1. Nature of the series: TP_TRANSPORTER: inhibition of MPP+ uptake (MPP+: 0.85 uM, Verapamil: 5000 uM) in Xenopus laevis oocytes. The series is classed as functional, cell-based. To be noted: oocyte.
The target is the same in series [3]. Nature of the series: TP_TRANSPORTER: inhibition of MPP+ uptake (MPP+: 0.85 uM, Thymidine: 5000 uM) in Xenopus laevis oocytes. The series is classed as functional, cell-based. The note with it: oocyte.
The target is the same in series [4]. Nature of the series: TP_TRANSPORTER: inhibition of MPP+ uptake (MPP+: 0.15 uM, Inosine: 1000 uM) in Xenopus laevis oocytes. In kind it is functional, cell-based. To be noted: oocyte.
Series [5] shares this target. Nature of the series: TP_TRANSPORTER: inhibition of MPP+ uptake (MPP+: 0.85 uM, NMN: 5000 uM) in Xenopus laevis oocytes. In kind it is functional, cell-based. To be noted: oocyte.
Series [6] has the same target. Nature of the series: TP_TRANSPORTER: inhibition of MPP+ uptake (MPP+: 0.85 uM, Pancuronium: 1000 uM) in Xenopus laevis oocytes. In kind it is functional, cell-based. To be noted: oocyte.
The target is the same in series [7]. Nature of the series: TP_TRANSPORTER: inhibition of MPP+ uptake (MPP+: 0.85 uM, Procainamide: 5000 uM) in Xenopus laevis oocytes. In kind it is functional, cell-based. To be noted: oocyte.
Series [8] has the same target. Nature of the series: TP_TRANSPORTER: inhibition of MPP+ uptake (MPP+: 0.85 uM, Quinidine: 1000 uM) in Xenopus laevis oocytes. In kind it is functional, cell-based. The note with it: oocyte.
For series [9] the target is unchanged. Nature of the series: TP_TRANSPORTER: inhibition of MPP+ uptake (MPP+: 0.85 uM, Quinine: 1000 uM) in Xenopus laevis oocytes. The series is classed as functional, cell-based. The note with it: oocyte.
Substrate in series [10]: C[n+]1ccc(-c2ccccc2)cc1
Nature of the series: TP_TRANSPORTER: uptake in Xenopus laevis oocytes. The series is classed as functional, cell-based, Oocyte.

With `CCN1/C(=C/c2ccc3ccccc3[n+]2CC)C=Cc2ccccc21`, the Ki in series [1] worked out at 4.4 µM. This counts as single-digit micromolar. Take `COc1ccc(CCN(C)CCCC(C#N)(c2ccc(OC)c(OC)c2)C(C)C)cc1OC` (configuration not stated): the Activity result in series [2] was “inhibitor [+]”.

Consider `Cc1cn([C@H]2C[C@H](O)[C@@H](CO)O2)c(=O)[nH]c1=O` [DOXRIBTIMINE], for which, in series [3], the Activity result was “inhibitor [+]”. Consider `OC[C@H]1O[C@@H](n2cnc3c(O)ncnc32)[C@H](O)[C@@H]1O` [INOSINE], for which the Activity result in series [4] was “inhibitor [+]”. In the case of `CNC(=O)c1cccnc1` [NICOTINYL METHYLAMIDE], the Activity result in series [5] is “inhibitor [+]”.

For the molecule `CC(=O)O[C@H]1C[C@@H]2CC[C@@H]3[C@H](CC[C@@]4(C)[C@H]3C[C@H]([N+]3(C)CCCCC3)[C@@H]4OC(C)=O)[C@@]2(C)C[C@@H]1[N+]1(C)CCCCC1` [PANCURONIUM], the Activity entry in [6] was “inhibitor [+]”. With `CCN(CC)CCNC(=O)c1ccc(N)cc1` [PROCAINAMIDE], the Activity entry in [7] is “inhibitor [+]”. For the molecule `C=C[C@H]1C[N@@]2CC[C@H]1C[C@@H]2[C@@H](O)c1ccnc2ccc(OC)cc12` [QUINIDINE], the Activity entry in series [8] is “inhibitor [+]”. `C=C[C@H]1C[N@@]2CC[C@H]1C[C@H]2[C@H](O)c1ccnc2ccc(OC)cc12` [QUININE]: the Activity entry in [9] was “inhibitor [+]”. In [1], `CC[N+](CC)(CC)CC` [TETRYLAMMONIUM] yielded an inhibition constant Ki of 163 µM. Still for that read-out and setting: the result for `CC(=O)O[C@H]1C[C@@H]2CC[C@@H]3[C@H](CC[C@@]4(C)[C@H]3C[C@H]([N+]3(C)CCCCC3)[C@@H]4OC(C)=O)[C@@]2(C)C[C@@H]1N1CCCCC1` [VECURONIUM] reads 120 µM.

B1: Solute carrier family 22 member 1 (Homo sapiens) (protein)
chain: MPTVDDILEQVGESGWFQKQAFLILCLLSAAFAPICVGIVFLGFTPDHHCQSPGVAELSQRCGWSPAEELNYTVPGLGPAGEAFLGQCRRYEVDWNQSALSCVDPLASLATNRSHLPLGPCQDGWVYDTPGSSIVTEFNLVCADSWKLDLFQSCLNAGFLFGSLGVGYFADRFGRKLCLLGTVLVNAVSGVLMAFSPNYMSMLLFRLLQGLVSKGNWMAGYTLITEFVGSGSRRTVAIMYQMAFTVGLVALTGLAYALPHWRWLQLAVSLPTFLFLLYYWCVPESPRWLLSQKRNTEAIKIMDHIAQKNGKLPPADLKMLSLEEDVTEKLSPSFADLFRTPRLRKRTFILMYLWFTDSVLYQGLILHMGATSGNLYLDFLYSALVEIPGAFIALITIDRVGRIYPMAMSNLLAGAACLVMIFISPDLHWLNIIIMCVGRMGITIAIQMICLVNAELYPTFVRNLGVMVCSSLCDIGGIITPFIVFRLREVWQALPLILFAVLGLLAAGVTLLLPETKGVALPETMKDAENLGRKAKPKENTIYLKVQTSEPSGT
B1: in series [10], the Michaelis-Menten constant (Km) turned out to be 14.6 µM.
